According to US20250222120A1, “SYNTHESIS OF NOVEL SMALL MOLECULE CARM1 DEGRADERS, COMPOUNDS FORMED THEREBY, AND PHARMACEUTICAL COMPOSITIONS CONTAINING THEM” (Wisconsin Alumni Research Foundation, priority 2024, published 2025):

Biological target: T1, PRMT1 (Homo sapiens, UniProt Q99873)
T1 construct: we performed a global quantitative proteomic analysis of MCF7 cells using mass spectrometry; endogenous in cells; host or cells: MCF7
Experiment: Global proteomics of MCF7 cells, PRMT1 level
Format: cell-based
Conditions: 25 nM, 4 h, versus DMSO
Protocol: Sample preparation for global proteomics analysis. Sample preparation is similar to the previous report (Ma et al. “Strategy Based on Deglycosylation, Multiprotease, and Hydrophilic Interaction Chromatography for Large-Scale Profiling of Protein Methylation” Anal. Chem. 2017, 89 (23), 12909-12917). Briefly, treated MCF7 cells were harvested by washing with PBS buffer (Gibco, pH 7.4) and lysed in RIPA buffer supplemented with protease inhibitors for 20 min, then protein concentration was determined using a BCA Protein Assay Kit (Thermo Pierce, Rockford, IL) per manufacturer instructions. […] The concentrations of the peptide mixture were measured by peptide assay (Thermo Fisher Scientific). […]
LC-MS/MS data acquisition. Samples were analyzed on an Orbitrap Fusion Lumos Tribrid mass spectrometer (Thermo Fisher Scientific) coupled to a Dionex UltiMate 3000 UPLC system. […]
Data analysis. Protein identification and quantification by MaxQuant (version 1.5.3.8) based database searching, using the integrated Andromeda search engine with FDR <1% at peptide and protein levels. […] For label-free protein quantification (LFQ), the MaxQuant LFQ algorithm was used to quantitate the MS signals, and the proteins' intensities were represented in LFQintesnit (Schaab et al. “Analysis of High Accuracy, Quantitative Proteomics Data in the MaxQB Database” Mol. Cell. Proteomics 2012, 11 (3), M111.014068). […]

T1 sequence (Q99873 whole entry): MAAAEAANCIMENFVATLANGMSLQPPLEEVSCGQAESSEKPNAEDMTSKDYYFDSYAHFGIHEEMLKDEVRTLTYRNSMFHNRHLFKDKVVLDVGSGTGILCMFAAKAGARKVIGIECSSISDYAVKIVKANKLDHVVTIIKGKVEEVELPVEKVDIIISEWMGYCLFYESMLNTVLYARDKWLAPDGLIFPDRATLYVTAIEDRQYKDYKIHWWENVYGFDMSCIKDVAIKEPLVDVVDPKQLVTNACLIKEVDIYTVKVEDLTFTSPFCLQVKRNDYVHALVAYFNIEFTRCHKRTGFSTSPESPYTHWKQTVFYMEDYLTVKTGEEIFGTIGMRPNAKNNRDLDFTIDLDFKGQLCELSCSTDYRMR

Q: For `CNCCN1CCC(c2cc(CN(C)C(=O)c3cccc(Oc4ccc(OCC(=O)N5CCC(CN6CCC(CN7CCN(CC(=O)N[C@H](C(=O)N8C[C@H](O)C[C@H]8C(=O)N[C@@H](C)c8ccc(-c9scnc9C)cc8)C(C)(C)C)CC7)CC6)CC5)cc4)c3)ccn2)CC1` [Compound 3b, (2S,4R)-1-((S)-3,3-dimethyl-2-(2-(4-((1-((1-(2-(4-(3-(methyl((2-(1-(2-(methylamino)ethyl)piperidin-4-yl)pyridin-4-yl)methyl)carbamoyl)phenoxy)phenoxy)acetyl)piperidin-4-yl)methyl)piperidin-4-yl)methyl)piperazin-1-yl)acetamido)butanoyl)-4-hydroxy-N—((S)-1-(4-(4-methylthiazol-5-yl)phenyl)ethyl)pyrrolidine-2-carboxamide], which “PRMT1 protein level in proteomics” value is on record?
A: not significantly changed
